US20070299043A1, “Anti-scarring drug combinations and use thereof” (priority 2005, published 2007)
Converted amounts (≈) assume the structure as drawn. Counter-ions that a name gives are not always drawn. One block for each compound: values may come before it.

Key:
glucocorticoid receptor = target: T1, glucocorticoid receptor (Homo sapiens, UniProt P04150); assay: Glucocorticoid receptor trafficking and GRE reporter plasmid transactivation in T cells; format: cell-based; settings: for potentiation of prednisolone's ability to transactivate a GRE reporter plasmid: T cells
T1 construct: endogenous in cells; host or cells: T cells
T1 sequence (P04150 1-777): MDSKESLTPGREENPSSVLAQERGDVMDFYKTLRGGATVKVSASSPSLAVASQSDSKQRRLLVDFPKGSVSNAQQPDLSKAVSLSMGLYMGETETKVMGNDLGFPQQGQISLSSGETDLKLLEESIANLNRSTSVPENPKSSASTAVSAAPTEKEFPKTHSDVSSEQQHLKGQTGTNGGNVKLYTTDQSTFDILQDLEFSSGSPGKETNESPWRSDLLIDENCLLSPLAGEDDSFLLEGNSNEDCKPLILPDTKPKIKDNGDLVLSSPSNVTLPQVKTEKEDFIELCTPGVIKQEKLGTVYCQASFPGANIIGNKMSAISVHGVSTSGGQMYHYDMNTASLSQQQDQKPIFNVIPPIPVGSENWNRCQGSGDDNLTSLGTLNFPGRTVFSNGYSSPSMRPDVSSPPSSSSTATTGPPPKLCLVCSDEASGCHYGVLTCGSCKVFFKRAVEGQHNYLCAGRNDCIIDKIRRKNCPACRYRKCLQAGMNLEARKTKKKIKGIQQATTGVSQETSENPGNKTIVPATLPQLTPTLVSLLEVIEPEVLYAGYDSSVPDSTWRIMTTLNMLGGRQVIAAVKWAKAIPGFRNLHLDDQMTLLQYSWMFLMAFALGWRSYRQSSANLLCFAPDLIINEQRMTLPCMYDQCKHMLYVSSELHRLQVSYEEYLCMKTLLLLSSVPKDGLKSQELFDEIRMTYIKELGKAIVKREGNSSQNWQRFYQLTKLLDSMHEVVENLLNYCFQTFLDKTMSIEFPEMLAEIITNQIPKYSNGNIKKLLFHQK

NFAT = NFAT activation, translocation and transactivation; format: cell-based
NFkB and AP1 = NFkB and AP1 activation; format: cell-based
p38, JNK, ERK = assay: p38, JNK and ERK activation; format: cell-based
E. coli UB1005 C498 = assay: MIC by microtitre broth dilution; format: cell-based; settings: for Minimum inhibitory concentration: Gram−, wt, Mueller Hinton broth, 37° C, 24h
Method: (§1) MIC assays were conducted essentially as described by Amsterdam, D. 1996, “Susceptibility testing of antimicrobials in liquid media”, p. 52-111, in Loman, V., ed. Antibiotics in laboratory medicine, 4th ed. Williams and Wilkins, Baltimore, Md.

[1] = tested on: multiple species of bacteria and fungi; settings: surface drug concentration is to be in excess of this value; cited from earlier work
[2] = Increase of the potency of an immunosuppressive agent
[3] = cited from earlier work; for solubility in alcohol/ethanol: alcohol or ethanol
[4] = tested on: LPS-induced TNF-α production; assay: Acute in vivo model of inflammation (LPS-induced TNF-α release); settings: component alone (prednisolone at reduced dose)
joint swelling = assay: Chronic in vivo arthritis model (adjuvant model), joint swelling; settings: component alone (prednisolone at reduced dose)
[5] = tested on: carrageenan-induced paw edema; assay: Rat carrageenan-induced paw edema model, paw volume; format: in vivo; settings: Amoxapine 2.26 mg/kg, foot pad, T-1 hr; Tmax = 6 hrs; listed as amoxapine (Amox)
Method: A dose-range finding study was performed to determine the anti-inflammatory activity of various ratios of methyl prednisolone acetate and amoxapine in a rat carrageenan-induced paw edema model. […] The molar ratio of methyl prednisolone acetate to amoxapine ranged from 1:1 to 1:300, using total doses of methyl prednisolone acetate of 0.01, 0.03 or 0.1 mg/kg.
The test agent (a combination of methyl prednisolone acetate and amoxapine), vehicle control, or reference agents (methyl prednisolone acetate, amoxapine, or Depo-Medrol®) were administered in the left hind foot pad of rats. After 60 minutes, paw edema was induced by injection of 100 μl of 1% carrageenan in the same foot pad. The paw volume was measured with a water displacement plethysmometer immediately prior to test agent injection (T−1h), at the time of carrageenan injection (T0h), and at T6h. Animals were euthanized by carbon dioxide inhalation. Paw tissue samples were collected and flash frozen in liquid nitrogen. Samples were assayed for TNF-α by enzyme-linked immunoassay (ELISA).

[6] = tested on: K. pneumoniae ATCC13883 C238; assay: MIC by microtitre broth dilution; format: cell-based; settings: Gram−, wt; Mueller Hinton broth, 37° C, 24h
Method: as §1

[7] = tested on: P. aeruginosa PAE/K799 H187; assay: MIC by microtitre broth dilution; format: cell-based; settings: Gram−, wt; Mueller Hinton broth, 37° C, 24h
Method: as §1

S. aureus ATCC25923 C622 = assay: MIC by microtitre broth dilution; format: cell-based; settings: Gram+, wt; Mueller Hinton broth, 37° C, 24h
Method: as §1

S. pyogenes C721 = assay: MIC by microtitre broth dilution; format: cell-based; settings: Gram+, wt; Todd Hewitt broth, 37° C, 24h
Method: as §1

S. epidermidis C621 = assay: MIC by microtitre broth dilution; format: cell-based; settings: Gram+, wt; Mueller Hinton broth, 37° C, 24h
Method: as §1

[8] = 200 mg/day orally; cited from earlier work
[9] = tested on: mast cells and eosinophil activation

promotion of glucocorticoid receptor trafficking (glucocorticoid receptor): does not promote
SMILES: Fc1ccc(C2CCNCC2COc2ccc3c(c2)OCO3)cc1 (single isomer, unassigned; (-)) [paroxetine, (−)-trans-4 R-(4′-fluorophenyl)-3 S-[(3′,4′-methylenedioxyphenoxy)methyl]piperidine hydrochloride hemihydrate]
potentiation of prednisolone's ability to transactivate a GRE reporter plasmid (glucocorticoid receptor): does not promote glucocorticoid receptor trafficking or potentiate
NFAT activation, translocation and transactivation (NFAT): represses
NFkB and AP1 activation (NFkB and AP1): inhibits
ERK activation (p38, JNK, ERK): but not ERK activation
p38 and JNK activation (p38, JNK, ERK): inhibition

SMILES: Sc1ncc2[nH]cnc2n1 [2-mercaptopurine]
Minimum inhibitory concentration (E. coli UB1005 C498): N

SMILES: O=c1[nH]cc(F)c(=O)[nH]1 [5-fluorouracil, 5-Fluorouracil]
MIC (E. coli UB1005 C498; Escherichia coli, UB1005C498, 24 h, read-out: Minimum inhibitory concentration): 1 µM (≈ 0.13 µg/mL)
concentration known to be lethal to multiple species of bacteria and fungi [1]: > 10^−4 M

SMILES: Sc1ncnc2nc[nH]c12 [6-mercaptopurine]
Minimum inhibitory concentration (E. coli UB1005 C498): N

SMILES: Nc1ccn([C@@H]2O[C@H](CO)[C@@H](O)[C@@H]2O)c(=O)n1 [Cytarabine, cytarabine]
Minimum inhibitory concentration (E. coli UB1005 C498): N

SMILES: CCN(CC)C(C)CN1c2ccccc2Sc2ccccc21 (stereo not drawn) [Ethopropazine, ethopropazine]
potency of an immunosuppressive agent [2]: increases the potency

SMILES: CN(C)C(=O)C(CCN1CCC(O)(c2ccc(Cl)cc2)CC1)(c1ccccc1)c1ccccc1 [Loperamide]
potency of an immunosuppressive agent [2]: increase the potency

SMILES: Nc1ccc(/N=N/c2ccccc2)c(N)n1 [Phenazopyridine base, phenazopyridine]
solubility in alcohol/ethanol [3]: slightly soluble in water and alcohol
solubility in water [3]: slightly soluble in water and alcohol

SMILES: NC(=O)c1ncn([C@@H]2O[C@H](CO)[C@@H](O)[C@H]2O)n1 [Ribavirin, ribavirin]
solubility in alcohol/ethanol [3]: only slightly soluble in alcohol

promotion of glucocorticoid receptor trafficking (glucocorticoid receptor): does not promote
potentiation of prednisolone's ability to transactivate a GRE reporter plasmid (glucocorticoid receptor): does not potentiate
SMILES: Clc1ccc2c(c1)C(N1CCNCC1)=Nc1ccccc1O2 [amoxapine]
NFAT activation, translocation and transactivation (NFAT): block
NFkB and AP1 activation (NFkB and AP1): partially inhibits
ERK activation (p38, JNK, ERK): unaffected
p38 and JNK activation (p38, JNK, ERK): Inhibition
effect of the individual component alone [4]: modest or no benefit
effect of the individual component alone (joint swelling): modest or no benefit
Edema ± SEM [5]: not significantly different from the vehicle treatment

SMILES: CC[C@@]1(O)C(=O)OCc2c1cc1n(c2=O)Cc2cc3ccccc3nc2-1 [camptothecin]
Minimum inhibitory concentration (E. coli UB1005 C498): N
Minimum inhibitory concentration [6]: N
Minimum inhibitory concentration [7]: N
Minimum inhibitory concentration (S. aureus ATCC25923 C622): N
Minimum inhibitory concentration (S. pyogenes C721): N

SMILES: N.N.[Cl][Pt][Cl] [cisplatin]
Minimum inhibitory concentration (E. coli UB1005 C498): N
Minimum inhibitory concentration [6]: N
Minimum inhibitory concentration [7]: 10^−4 Molar
Minimum inhibitory concentration (S. aureus ATCC25923 C622): N
Minimum inhibitory concentration (S. epidermidis C621): N
Minimum inhibitory concentration (S. pyogenes C721): N

SMILES: COc1cccc2c1C(=O)c1c(O)c3c(c(O)c1C2=O)C[C@@](O)(C(=O)CO)C[C@@H]3O[C@H]1C[C@H](N)[C@H](O)[C@H](C)O1 [doxorubicin, Doxorubicin]
Minimum inhibitory concentration (E. coli UB1005 C498): 10^−4 Molar
Minimum inhibitory concentration [6]: 10^−6 Molar
Minimum inhibitory concentration [7]: 10^−5 Molar
Minimum inhibitory concentration (S. aureus ATCC25923 C622): 10^−5 Molar
Minimum inhibitory concentration (S. epidermidis C621): 10^−6 Molar
Minimum inhibitory concentration (S. pyogenes C721): 10^−7 Molar
concentration known to be lethal to multiple species of bacteria and fungi [1]: > 10^−4 M

SMILES: COc1cc([C@@H]2c3cc4c(cc3[C@@H](O[C@@H]3O[C@@H]5CO[C@@H](C)O[C@H]5[C@H](O)[C@H]3O)[C@H]3COC(=O)[C@H]23)OCO4)cc(OC)c1O [etoposide]
Minimum inhibitory concentration (E. coli UB1005 C498): N

SMILES: NC(=O)NO [hydroxyurea]
Minimum inhibitory concentration (E. coli UB1005 C498): N
Minimum inhibitory concentration [6]: N
Minimum inhibitory concentration [7]: 10^−4 Molar
Minimum inhibitory concentration (S. aureus ATCC25923 C622): N
Minimum inhibitory concentration (S. epidermidis C621): N
Minimum inhibitory concentration (S. pyogenes C721): 10^−4 Molar

SMILES: CC(=O)N1CCN(c2ccc(OCC3COC(Cn4ccnc4)(c4ccc(Cl)cc4Cl)O3)cc2)CC1 (stereo not drawn) [ketoconazole]
serum concentration [8]: about 3.2 micrograms
solubility in water [3]: essentially insoluble in water

SMILES: CCOC(=O)N1CCC(=C2c3ccc(Cl)cc3CCc3cccnc32)CC1 [loratadine]
mast cells and eosinophil activation [9]: inhibits

SMILES: CNCCCC12CCC(c3ccccc31)c1ccccc12 [maprotiline]
potency of an immunosuppressive agent [2]: increases the potency

SMILES: CN(Cc1cnc2nc(N)nc(N)c2n1)c1ccc(C(=O)N[C@@H](CCC(=O)O)C(=O)O)cc1 [methotrexate]
Minimum inhibitory concentration (E. coli UB1005 C498): N
Minimum inhibitory concentration [6]: 10^−6 Molar
Minimum inhibitory concentration [7]: N
Minimum inhibitory concentration (S. aureus ATCC25923 C622): 10^−5 Molar
Minimum inhibitory concentration (S. epidermidis C621): N
Minimum inhibitory concentration (S. pyogenes C721): 10^−6 Molar

SMILES: O=C1c2c(O)ccc(O)c2C(=O)c2c(NCCNCCO)ccc(NCCNCCO)c21 [mitoxantrone]
Minimum inhibitory concentration (E. coli UB1005 C498): 10^−5 Molar
concentration known to be lethal to multiple species of bacteria and fungi [1]: > 10^−5 M

SMILES: Oc1cc(Cl)ccc1Oc1ccc(Cl)cc1Cl [triclosan]
potency of an immunosuppressive agent [2]: increases the potency

SMILES: Nc1ncnc2c1ccn2[C@@H]1O[C@H](CO)[C@@H](O)[C@H]1O [tubercidin]
Minimum inhibitory concentration (E. coli UB1005 C498): N
Minimum inhibitory concentration [6]: N
Minimum inhibitory concentration [7]: N
Minimum inhibitory concentration (S. aureus ATCC25923 C622): N
Minimum inhibitory concentration (S. epidermidis C621): N
Minimum inhibitory concentration (S. pyogenes C721): N
